Results: patent publication US20100009950A1, “SUBSTITUTED ETHANOLAMINES” (AUSPEX PHARMACEUTICALS, INC., priority 2008, published 2010)

Settings: mark in second data column (bin 0%-50%); 1 mg per mL liver microsome protein, 1 μM, 37° C.; vs non-isotopically enriched compound

N-(2-Hydroxy-2-(4-hydroxy-3-(hydroxymethyl)phenyl)ethyl)-6-(4-d3-phenyl-d8-butoxy)hexan-1-d2-aminium 1-hydroxy-2-naphthoate [Example 5]
% increase of HLM degradation half-life: + (0%-50%)
